Assays:
[1] = molecular target: Cyclin-dependent kinase 11A (Homo sapiens) (UniProt Q9UQ88); conditions: Compound concentration 1000.0 nM
[2] = molecular target: Dual specificity protein kinase CLK1 (Homo sapiens) (UniProt P49759); conditions: Compound concentration 1000.0 nM
[3] = test system: Epidermal growth factor receptor (Homo sapiens), P00533 [UNDEFINED MUTATION]; conditions: Compound concentration 1000.0 nM
[4] = molecular target: Ephrin type-A receptor 6 (Homo sapiens) (UniProt Q9UF33); conditions: Compound concentration 1000.0 nM
Sequence of Ephrin type-A receptor 6 (Homo sapiens) (Q9UF33 whole entry): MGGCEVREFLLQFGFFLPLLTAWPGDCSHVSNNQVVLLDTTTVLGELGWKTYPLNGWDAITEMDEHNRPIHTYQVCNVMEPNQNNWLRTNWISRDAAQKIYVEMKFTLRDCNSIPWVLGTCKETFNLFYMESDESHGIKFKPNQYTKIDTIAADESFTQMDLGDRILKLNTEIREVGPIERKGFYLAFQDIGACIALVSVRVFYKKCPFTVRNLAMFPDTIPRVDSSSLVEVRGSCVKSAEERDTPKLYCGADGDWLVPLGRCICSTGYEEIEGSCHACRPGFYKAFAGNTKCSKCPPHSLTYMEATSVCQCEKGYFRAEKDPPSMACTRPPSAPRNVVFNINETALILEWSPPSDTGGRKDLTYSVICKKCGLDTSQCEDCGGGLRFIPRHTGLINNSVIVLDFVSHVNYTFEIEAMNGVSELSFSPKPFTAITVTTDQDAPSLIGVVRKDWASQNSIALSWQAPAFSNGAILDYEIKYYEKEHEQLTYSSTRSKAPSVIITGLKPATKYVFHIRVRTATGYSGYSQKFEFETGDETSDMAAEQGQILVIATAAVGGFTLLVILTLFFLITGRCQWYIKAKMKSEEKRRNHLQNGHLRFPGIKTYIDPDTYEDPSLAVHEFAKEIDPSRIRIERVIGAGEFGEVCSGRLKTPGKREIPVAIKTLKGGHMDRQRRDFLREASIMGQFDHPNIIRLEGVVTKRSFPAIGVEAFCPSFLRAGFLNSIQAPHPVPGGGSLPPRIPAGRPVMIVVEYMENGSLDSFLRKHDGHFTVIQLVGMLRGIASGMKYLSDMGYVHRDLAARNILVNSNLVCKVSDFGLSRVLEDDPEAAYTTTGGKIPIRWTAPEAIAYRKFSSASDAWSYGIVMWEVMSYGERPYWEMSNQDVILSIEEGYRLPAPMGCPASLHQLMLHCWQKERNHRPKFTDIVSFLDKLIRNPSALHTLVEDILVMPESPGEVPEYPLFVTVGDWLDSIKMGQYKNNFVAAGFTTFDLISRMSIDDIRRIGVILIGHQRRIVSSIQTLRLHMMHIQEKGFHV

[5] = molecular target: G protein-coupled receptor kinase 4 (Homo sapiens) (UniProt P32298); conditions: Compound concentration 1000.0 nM
Sequence of G protein-coupled receptor kinase 4 (Homo sapiens) (P32298 whole entry, looked up): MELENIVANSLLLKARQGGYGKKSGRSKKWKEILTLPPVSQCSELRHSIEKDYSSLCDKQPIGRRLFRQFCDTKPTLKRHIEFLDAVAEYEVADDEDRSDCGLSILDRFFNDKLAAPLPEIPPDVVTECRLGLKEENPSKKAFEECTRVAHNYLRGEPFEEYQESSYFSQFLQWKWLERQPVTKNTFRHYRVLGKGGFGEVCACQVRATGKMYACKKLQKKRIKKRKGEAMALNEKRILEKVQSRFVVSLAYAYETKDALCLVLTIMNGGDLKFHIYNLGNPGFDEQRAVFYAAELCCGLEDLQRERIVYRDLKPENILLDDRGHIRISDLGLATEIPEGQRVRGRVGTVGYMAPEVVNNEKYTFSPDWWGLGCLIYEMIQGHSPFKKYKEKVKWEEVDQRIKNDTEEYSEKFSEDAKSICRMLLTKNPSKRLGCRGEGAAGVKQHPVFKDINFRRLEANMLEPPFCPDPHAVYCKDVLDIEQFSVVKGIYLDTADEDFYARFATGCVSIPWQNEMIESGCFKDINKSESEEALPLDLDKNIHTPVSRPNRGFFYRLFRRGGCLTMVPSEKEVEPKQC

[6] = molecular target: Tyrosine-protein kinase Lck (Homo sapiens) (UniProt P06239); conditions: Compound concentration 1000.0 nM
[7] = molecular target: LIM domain kinase 1 (Homo sapiens) (UniProt P53667); conditions: Compound concentration 1000.0 nM
[8] = molecular target: T1, Mitogen-activated protein kinase kinase kinase kinase 2 (Homo sapiens) (UniProt Q12851); conditions: Compound concentration 1000.0 nM
T1 sequence (whole entry): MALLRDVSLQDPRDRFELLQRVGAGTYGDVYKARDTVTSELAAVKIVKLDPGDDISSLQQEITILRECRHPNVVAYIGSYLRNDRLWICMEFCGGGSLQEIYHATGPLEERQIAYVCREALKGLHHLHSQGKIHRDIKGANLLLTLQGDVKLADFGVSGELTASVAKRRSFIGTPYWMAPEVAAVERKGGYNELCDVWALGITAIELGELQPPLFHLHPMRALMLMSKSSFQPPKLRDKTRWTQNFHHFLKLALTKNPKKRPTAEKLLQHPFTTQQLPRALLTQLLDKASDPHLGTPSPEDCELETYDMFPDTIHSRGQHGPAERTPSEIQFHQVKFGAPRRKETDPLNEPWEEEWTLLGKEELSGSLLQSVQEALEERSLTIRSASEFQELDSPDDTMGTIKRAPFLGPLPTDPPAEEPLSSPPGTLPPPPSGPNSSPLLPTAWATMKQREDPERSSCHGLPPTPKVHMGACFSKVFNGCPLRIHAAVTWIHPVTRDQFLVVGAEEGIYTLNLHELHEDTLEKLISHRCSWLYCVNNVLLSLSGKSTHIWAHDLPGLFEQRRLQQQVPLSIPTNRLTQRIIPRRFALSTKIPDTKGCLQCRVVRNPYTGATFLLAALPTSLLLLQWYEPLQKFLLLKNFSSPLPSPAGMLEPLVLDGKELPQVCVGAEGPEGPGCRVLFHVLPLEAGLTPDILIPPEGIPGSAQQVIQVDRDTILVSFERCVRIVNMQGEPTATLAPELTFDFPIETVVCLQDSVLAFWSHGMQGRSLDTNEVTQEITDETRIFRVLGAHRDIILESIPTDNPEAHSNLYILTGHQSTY

[9] = molecular target: T2, Serine/threonine-protein kinase 4 (Homo sapiens) (UniProt Q13043); conditions: Compound concentration 1000.0 nM
T2 sequence (whole entry): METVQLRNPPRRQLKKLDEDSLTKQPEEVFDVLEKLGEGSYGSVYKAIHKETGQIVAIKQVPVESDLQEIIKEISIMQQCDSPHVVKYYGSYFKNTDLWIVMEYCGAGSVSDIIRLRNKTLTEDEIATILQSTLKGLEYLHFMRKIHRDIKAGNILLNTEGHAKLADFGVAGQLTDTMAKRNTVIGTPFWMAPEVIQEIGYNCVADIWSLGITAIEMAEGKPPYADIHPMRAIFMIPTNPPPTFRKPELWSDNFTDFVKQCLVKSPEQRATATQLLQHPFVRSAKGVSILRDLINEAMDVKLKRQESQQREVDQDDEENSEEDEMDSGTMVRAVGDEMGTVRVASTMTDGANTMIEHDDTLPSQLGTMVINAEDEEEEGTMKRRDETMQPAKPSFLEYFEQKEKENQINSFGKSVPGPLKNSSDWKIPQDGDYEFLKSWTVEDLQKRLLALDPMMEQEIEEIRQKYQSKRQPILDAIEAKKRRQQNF

[10] = molecular target: Mitogen-activated protein kinase 11 (Homo sapiens) (UniProt Q15759); conditions: Compound concentration 1000.0 nM
Sequence of Mitogen-activated protein kinase 11 (Homo sapiens) (Q15759 whole entry): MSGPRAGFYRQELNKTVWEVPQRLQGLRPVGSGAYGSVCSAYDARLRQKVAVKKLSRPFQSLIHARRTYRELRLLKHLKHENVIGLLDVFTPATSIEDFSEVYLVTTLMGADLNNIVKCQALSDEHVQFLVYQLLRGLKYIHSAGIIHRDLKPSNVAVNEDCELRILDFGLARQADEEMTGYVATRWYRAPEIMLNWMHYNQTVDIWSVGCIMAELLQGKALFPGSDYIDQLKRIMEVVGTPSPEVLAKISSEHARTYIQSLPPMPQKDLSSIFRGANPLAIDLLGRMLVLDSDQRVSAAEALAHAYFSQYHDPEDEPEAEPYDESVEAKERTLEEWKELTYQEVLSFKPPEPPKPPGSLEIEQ

[11] = molecular target: Serine/threonine-protein kinase pim-1 (Homo sapiens) (UniProt P11309); conditions: Compound concentration 1000.0 nM
Sequence of Serine/threonine-protein kinase pim-1 (Homo sapiens) (P11309 whole entry, looked up): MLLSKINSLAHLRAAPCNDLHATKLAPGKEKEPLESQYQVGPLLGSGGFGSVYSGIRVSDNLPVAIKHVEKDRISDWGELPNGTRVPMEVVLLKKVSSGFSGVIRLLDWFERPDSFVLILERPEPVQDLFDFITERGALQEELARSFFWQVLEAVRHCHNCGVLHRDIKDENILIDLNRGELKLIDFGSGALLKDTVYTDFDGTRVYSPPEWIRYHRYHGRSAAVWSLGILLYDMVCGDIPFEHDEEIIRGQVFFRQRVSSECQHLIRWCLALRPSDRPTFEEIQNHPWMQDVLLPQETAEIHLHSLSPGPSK

[12] = molecular target: Uncharacterized serine/threonine-protein kinase SBK3 (Homo sapiens) (UniProt P0C264); conditions: Compound concentration 1000.0 nM
[13] = molecular target: T3, Serine/threonine-protein kinase Sgk2 (Homo sapiens) (UniProt Q9HBY8); conditions: Compound concentration 1000.0 nM
T3 sequence (whole entry): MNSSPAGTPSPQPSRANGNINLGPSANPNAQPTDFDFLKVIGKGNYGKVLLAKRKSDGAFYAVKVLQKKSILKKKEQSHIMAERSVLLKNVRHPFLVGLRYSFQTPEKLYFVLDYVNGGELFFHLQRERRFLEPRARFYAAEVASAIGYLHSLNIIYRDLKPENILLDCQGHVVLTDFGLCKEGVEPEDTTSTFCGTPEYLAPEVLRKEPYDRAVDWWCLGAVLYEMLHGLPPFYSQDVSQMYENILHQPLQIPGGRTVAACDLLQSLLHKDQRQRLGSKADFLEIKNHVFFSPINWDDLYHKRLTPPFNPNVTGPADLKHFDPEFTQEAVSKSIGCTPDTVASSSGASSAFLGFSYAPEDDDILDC

[14] = molecular target: T4, Muscarinic acetylcholine receptor M4 (Homo sapiens) (UniProt P08173); conditions: Compound concentration 10.0 uM
T4 sequence (whole entry): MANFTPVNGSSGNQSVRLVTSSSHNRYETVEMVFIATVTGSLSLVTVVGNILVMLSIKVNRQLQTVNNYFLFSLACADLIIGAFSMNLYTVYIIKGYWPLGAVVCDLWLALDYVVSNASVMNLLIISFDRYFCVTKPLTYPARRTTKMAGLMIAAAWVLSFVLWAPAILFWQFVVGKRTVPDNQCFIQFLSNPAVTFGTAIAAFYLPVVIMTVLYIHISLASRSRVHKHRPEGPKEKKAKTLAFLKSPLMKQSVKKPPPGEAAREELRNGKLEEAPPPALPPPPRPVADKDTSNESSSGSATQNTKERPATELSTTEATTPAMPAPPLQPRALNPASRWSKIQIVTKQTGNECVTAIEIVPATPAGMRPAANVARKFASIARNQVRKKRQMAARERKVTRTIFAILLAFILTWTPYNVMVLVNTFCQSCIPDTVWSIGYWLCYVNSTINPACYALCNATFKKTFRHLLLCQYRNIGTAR

Sequence of Cyclin-dependent kinase 11A (Homo sapiens) (Q9UQ88 whole entry): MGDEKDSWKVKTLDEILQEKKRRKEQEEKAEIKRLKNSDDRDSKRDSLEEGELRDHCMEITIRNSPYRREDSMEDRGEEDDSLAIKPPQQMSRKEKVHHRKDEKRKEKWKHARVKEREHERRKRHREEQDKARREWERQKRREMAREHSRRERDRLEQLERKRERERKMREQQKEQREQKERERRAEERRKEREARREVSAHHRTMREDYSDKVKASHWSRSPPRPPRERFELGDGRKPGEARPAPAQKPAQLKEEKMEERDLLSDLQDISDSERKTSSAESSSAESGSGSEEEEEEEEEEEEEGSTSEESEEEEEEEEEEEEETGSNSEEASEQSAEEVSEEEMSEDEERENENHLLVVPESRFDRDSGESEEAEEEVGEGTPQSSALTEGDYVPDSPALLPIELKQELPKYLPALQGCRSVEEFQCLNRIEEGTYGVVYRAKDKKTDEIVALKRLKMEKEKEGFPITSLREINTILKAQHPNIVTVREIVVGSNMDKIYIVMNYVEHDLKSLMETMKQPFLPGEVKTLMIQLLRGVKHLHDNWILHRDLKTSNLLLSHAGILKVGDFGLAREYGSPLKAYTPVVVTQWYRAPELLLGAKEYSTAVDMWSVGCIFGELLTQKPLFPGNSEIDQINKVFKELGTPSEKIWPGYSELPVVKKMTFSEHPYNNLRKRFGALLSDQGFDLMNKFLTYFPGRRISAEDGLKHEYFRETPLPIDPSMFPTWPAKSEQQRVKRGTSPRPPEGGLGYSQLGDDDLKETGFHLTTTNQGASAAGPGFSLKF
Sequence of Dual specificity protein kinase CLK1 (Homo sapiens) (P49759 whole entry, looked up): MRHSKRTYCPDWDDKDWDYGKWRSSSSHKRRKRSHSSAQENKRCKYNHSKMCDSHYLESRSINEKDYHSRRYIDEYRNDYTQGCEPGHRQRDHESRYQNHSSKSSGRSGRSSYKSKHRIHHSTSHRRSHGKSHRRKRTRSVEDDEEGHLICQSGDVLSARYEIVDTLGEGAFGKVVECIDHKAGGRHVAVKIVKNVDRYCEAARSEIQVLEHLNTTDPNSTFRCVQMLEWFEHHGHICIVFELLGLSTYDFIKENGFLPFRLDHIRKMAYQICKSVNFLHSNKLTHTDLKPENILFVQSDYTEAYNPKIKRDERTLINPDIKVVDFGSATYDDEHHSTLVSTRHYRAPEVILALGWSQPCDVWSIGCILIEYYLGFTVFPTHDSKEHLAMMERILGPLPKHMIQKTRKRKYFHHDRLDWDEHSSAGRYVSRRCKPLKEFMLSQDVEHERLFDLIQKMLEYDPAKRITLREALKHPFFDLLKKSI
Sequence of Epidermal growth factor receptor (Homo sapiens), P00533 [UNDEFINED MUTATION] (P00533 whole entry, looked up, change not shown): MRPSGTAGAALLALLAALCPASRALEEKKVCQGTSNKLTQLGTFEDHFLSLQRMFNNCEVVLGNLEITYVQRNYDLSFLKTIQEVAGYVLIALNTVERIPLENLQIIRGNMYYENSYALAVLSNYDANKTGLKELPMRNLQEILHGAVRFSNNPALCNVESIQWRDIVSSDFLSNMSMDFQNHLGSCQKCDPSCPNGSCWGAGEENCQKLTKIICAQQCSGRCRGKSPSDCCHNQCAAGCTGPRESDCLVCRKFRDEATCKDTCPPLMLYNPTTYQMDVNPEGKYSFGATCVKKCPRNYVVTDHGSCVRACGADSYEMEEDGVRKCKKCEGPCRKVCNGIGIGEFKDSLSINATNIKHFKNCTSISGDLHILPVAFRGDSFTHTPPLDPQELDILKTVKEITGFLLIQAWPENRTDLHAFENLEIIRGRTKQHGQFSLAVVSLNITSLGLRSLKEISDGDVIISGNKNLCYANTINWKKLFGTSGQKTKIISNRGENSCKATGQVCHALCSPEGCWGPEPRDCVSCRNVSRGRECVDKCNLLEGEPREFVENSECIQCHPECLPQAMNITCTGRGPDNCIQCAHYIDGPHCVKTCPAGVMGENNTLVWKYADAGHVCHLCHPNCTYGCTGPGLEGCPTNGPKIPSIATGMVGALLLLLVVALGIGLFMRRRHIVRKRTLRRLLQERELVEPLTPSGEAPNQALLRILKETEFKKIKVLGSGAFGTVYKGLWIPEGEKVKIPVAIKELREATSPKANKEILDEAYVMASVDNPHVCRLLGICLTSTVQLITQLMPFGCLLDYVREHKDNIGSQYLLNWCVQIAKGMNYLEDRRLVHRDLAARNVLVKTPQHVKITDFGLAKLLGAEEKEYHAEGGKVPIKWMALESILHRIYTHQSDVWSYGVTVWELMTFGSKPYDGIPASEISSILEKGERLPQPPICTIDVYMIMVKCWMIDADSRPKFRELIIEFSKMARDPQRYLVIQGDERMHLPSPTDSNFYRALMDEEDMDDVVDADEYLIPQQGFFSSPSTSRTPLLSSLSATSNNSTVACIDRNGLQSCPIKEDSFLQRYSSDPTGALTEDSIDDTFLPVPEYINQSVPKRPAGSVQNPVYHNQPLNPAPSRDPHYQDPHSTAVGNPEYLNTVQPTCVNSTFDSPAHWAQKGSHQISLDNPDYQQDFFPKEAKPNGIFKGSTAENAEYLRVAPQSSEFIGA

CN(C)C(=O)Cn1cc(-c2nc(C3(c4ccc(-c5cnc(N)nc5)cc4)CC3)no2)cn1 [BI 0153]
inactive: residual activity [1] 89% | residual activity [2] 100% | residual activity [3] 80% | residual activity [4] 99% | residual activity [5] 100% | residual activity [6] 83% | residual activity [7] 100% | residual activity [8] 89% | residual activity [9] 90% | residual activity [10] 86% | residual activity [11] 100% | residual activity [12] 99% | residual activity [13] 100% | inhibition [14] 5.81%

CN(C)C(=O)Cn1cc(-c2nc([C@@](C)(c3ccc(-c4cnc(N)nc4)cc3)C3CC3)no2)cn1 [BI 665915]
inactive: residual activity [1] 100% | residual activity [2] 93% | residual activity [3] 100% | residual activity [4] 100% | residual activity [5] 86% | residual activity [6] 86% | residual activity [7] 81% | residual activity [8] 100% | residual activity [9] 90% | residual activity [10] 97% | residual activity [11] 100% | residual activity [12] 71% | residual activity [13] 83% | inhibition [14] 10.3%

Source: ChEMBL document CHEMBL4507276 (2021)
